Experimental data reported in patent publication US20110034335A1, “Treatment of Ornamental Plants” (priority 2009, published 2011).

How the values were obtained:
[1] = test system: ‘Magenta’ Impatiens; test: Spray with 1-MCP solutions with Silwet L-77, ethylene challenge (Example 5); format: in vivo; conditions: for Wilt and/or Abscission (%): surf. 0.25 ml/L
Description: (§1) Spray applications were made using (unless otherwise noted) AFxRD-038 powder containing 3.8% active ingredient, i.e. 1-MCP, and also containing dextrose, alpha-cyclodextrin, and amino acid salt. Rates listed are for active ingredient e.g. 5 mg active ingredient per liter. Sprayed liquid contained (unless otherwise noted) AFxRD-038 powder added to water. AFxRD-038 powder was obtained from AgroFresh Inc. The water used (unless otherwise noted) was tap water. Applications were done in 500 ml spray bottles at rates typical for growth regulators applications in the ornamental industry i.e., 200 ml per square meter. Spraying was done within 5-15 minutes of mixing the formulation. Plants were allowed to dry for 1-4 hours before being challenged with ethylene (2 ppm for about 16 hours at ambient temperatures).
Surfactant Silwet™ L-77 (called “surf” below) was sometimes included to evaluate the effect of surfactant on efficacy. Silwet™ L-77 was used in the form of a pure liquid. The amounts shown below as “ml/L” refer to milliliters of pure Silwet™ L-77 per liter of liquid CP composition.

[2] = test system: Campanula; test: Spray with 1-MCP solutions without surfactant, ethylene challenge (Example 3); format: in vivo
Description: as §1
Bud wilting and flower abscission (%) of Campanula (in pots) sprayed with 1-MCP solutions without a surfactant, and challenged with ethylene. We observed the percent of plants on which one or more buds or one or more flowers underwent wilting or abscission or both.

## CC1=CC1 [1-MCP, 1-methylcyclopropene]
[1]; 1-MCP 5 mg/L
  Wilt and/or Abscission (%): 3%
[1]; 1-MCP 10 mg/L
  Wilt and/or Abscission (%): 2%
[1]; 1-MCP 25 mg/L
  Wilt and/or Abscission (%): 5%
[1]; 1-MCP 50 mg/L
  Wilt and/or Abscission (%): 0%
[1]; even at the highest rates with Silwet L-77
  phytotoxicity: No phytotoxicity was observed
[2]; 1-MCP 5 mg/L, Day 1
  Bud Wilting and/or Flower Abscission (%): 21%
[2]; 1-MCP 5 mg/L, Day 7
  Bud Wilting and/or Flower Abscission (%): 25%
[2]; 1-MCP 10 mg/L, Day 1
  Bud Wilting and/or Flower Abscission (%): 45%
[2]; 1-MCP 10 mg/L, Day 7
  Bud Wilting and/or Flower Abscission (%): 52%
[2]; 1-MCP 25 mg/L, Day 1
  Bud Wilting and/or Flower Abscission (%): 38%
[2]; 1-MCP 25 mg/L, Day 7
  Bud Wilting and/or Flower Abscission (%): 59%
[2]; 1-MCP 50 mg/L, Day 1
  Bud Wilting and/or Flower Abscission (%): 38%
[2]; 1-MCP 50 mg/L, Day 7
  Bud Wilting and/or Flower Abscission (%): 57%
